Test results published in PMC6149898, “GPCR Modulation of Thieno[2,3-b]pyridine Anti-Proliferative Agents” (Molecules : A Journal of Synthetic Chemistry and Natural …, 2017).

Key:
[1] = system: LC:NCI-H460; design: method as in earlier work; details: NCI-60 panel; ref [4],[5],[6],[7]; cited from earlier work
[2] = molecular target: KISS1R (Homo sapiens, UniProt Q969F8); experiment: gpcrMAX PathHunter beta-arrestin
[3] = molecular target: F2RL1 (Homo sapiens, UniProt P55085); experiment: gpcrMAX PathHunter beta-arrestin
[4] = system: OV:OVCAR-8; design: method as in earlier work; details: NCI-60 panel; ref [4],[5],[6],[7]; cited from earlier work
[5] = molecular target: GPR1 (Homo sapiens, UniProt P46091); experiment: gpcrMAX PathHunter beta-arrestin
[6] = molecular target: CALCR (Homo sapiens, UniProt P30988); experiment: gpcrMAX PathHunter beta-arrestin
[7] = molecular target: GALR2 (Homo sapiens, UniProt O43603); experiment: gpcrMAX PathHunter beta-arrestin
[8] = molecular target: ADCYAP1R1 (Homo sapiens, UniProt P41586); experiment: gpcrMAX PathHunter beta-arrestin
[9] = molecular target: GLP2R (Homo sapiens, UniProt O95838); experiment: gpcrMAX PathHunter beta-arrestin
[10] = system: LC:NCI-H322M; design: method as in earlier work; details: NCI-60 panel; ref [4],[5],[6],[7]; cited from earlier work
[11] = molecular target: BDKRB1 (Homo sapiens, UniProt P46663); experiment: gpcrMAX PathHunter beta-arrestin
[12] = system: ME:LOX IMVI; design: method as in earlier work; details: NCI-60 panel; ref [4],[5],[6],[7]; cited from earlier work
[13] = system: LE:CCRF-CEM; design: method as in earlier work; details: NCI-60 panel; ref [4],[5],[6],[7]; cited from earlier work
[14] = molecular target: CRTH2 (Homo sapiens, UniProt Q9Y5Y4); experiment: gpcrMAX PathHunter beta-arrestin
[15] = molecular target: NMBR (Homo sapiens, UniProt P28336); experiment: gpcrMAX PathHunter beta-arrestin
[16] = system: RE:786-0; design: method as in earlier work; details: NCI-60 panel; ref [4],[5],[6],[7]; cited from earlier work
[17] = molecular target: CXCR7 (Homo sapiens, UniProt P25106); experiment: gpcrMAX PathHunter beta-arrestin
[18] = molecular target: MTNR1A (Homo sapiens, UniProt P48039); experiment: gpcrMAX PathHunter beta-arrestin
[19] = system: CO:COLO 205; design: method as in earlier work; details: NCI-60 panel; ref [4],[5],[6],[7]; cited from earlier work
[20] = molecular target: FPR1 (Homo sapiens, UniProt P21462); experiment: gpcrMAX PathHunter beta-arrestin
[21] = molecular target: ADRB1 (Homo sapiens, UniProt P08588); experiment: gpcrMAX PathHunter beta-arrestin
[22] = molecular target: AVPR2 (Homo sapiens, UniProt P30518); experiment: gpcrMAX PathHunter beta-arrestin
[23] = molecular target: HRH2 (Homo sapiens, UniProt P25021); experiment: gpcrMAX PathHunter beta-arrestin
[24] = molecular target: EDNRA (Homo sapiens, UniProt P25101); experiment: gpcrMAX PathHunter beta-arrestin
[25] = molecular target: ADORA3 (Homo sapiens, UniProt P0DMS8); experiment: gpcrMAX PathHunter beta-arrestin
[26] = molecular target: CCR3 (Homo sapiens, UniProt P51677); experiment: gpcrMAX PathHunter beta-arrestin
[27] = molecular target: SCTR (Homo sapiens, UniProt P47872); experiment: gpcrMAX PathHunter beta-arrestin
[28] = molecular target: HRH3 (Homo sapiens, UniProt Q9Y5N1); experiment: gpcrMAX PathHunter beta-arrestin
[29] = molecular target: EDG4 (Homo sapiens, UniProt Q9HBW0); experiment: gpcrMAX PathHunter beta-arrestin
[30] = molecular target: EDNRB (Homo sapiens, UniProt P24530); experiment: gpcrMAX PathHunter beta-arrestin
[31] = system: OV:SK-OV-3; design: method as in earlier work; details: NCI-60 panel; ref [4],[5],[6],[7]; cited from earlier work
[32] = system: RE:CAKI-1; design: method as in earlier work; details: NCI-60 panel; ref [4],[5],[6],[7]; cited from earlier work
[33] = molecular target: CALCRL-RAMP1 (Homo sapiens, UniProt O60894+Q16602); experiment: gpcrMAX PathHunter beta-arrestin
[34] = system: CO:KM12; design: method as in earlier work; details: NCI-60 panel; ref [4],[5],[6],[7]; cited from earlier work
[35] = molecular target: CCR6 (Homo sapiens, UniProt P51684); experiment: gpcrMAX PathHunter beta-arrestin
[36] = molecular target: HRH1 (Homo sapiens, UniProt P35367); experiment: gpcrMAX PathHunter beta-arrestin
[37] = molecular target: GHSR (Homo sapiens, UniProt Q92847); experiment: gpcrMAX PathHunter beta-arrestin
[38] = system: PR:PC-3; design: method as in earlier work; details: NCI-60 panel; ref [4],[5],[6],[7]; cited from earlier work
[39] = system: ME:SK-MEL-2; design: method as in earlier work; details: NCI-60 panel; ref [4],[5],[6],[7]; cited from earlier work
[40] = molecular target: EDG6 (Homo sapiens, UniProt O95977); experiment: gpcrMAX PathHunter beta-arrestin
[41] = molecular target: GPR92 (Homo sapiens, UniProt Q9H1C0); experiment: gpcrMAX PathHunter beta-arrestin

CCR6, sequence (P51684 whole entry): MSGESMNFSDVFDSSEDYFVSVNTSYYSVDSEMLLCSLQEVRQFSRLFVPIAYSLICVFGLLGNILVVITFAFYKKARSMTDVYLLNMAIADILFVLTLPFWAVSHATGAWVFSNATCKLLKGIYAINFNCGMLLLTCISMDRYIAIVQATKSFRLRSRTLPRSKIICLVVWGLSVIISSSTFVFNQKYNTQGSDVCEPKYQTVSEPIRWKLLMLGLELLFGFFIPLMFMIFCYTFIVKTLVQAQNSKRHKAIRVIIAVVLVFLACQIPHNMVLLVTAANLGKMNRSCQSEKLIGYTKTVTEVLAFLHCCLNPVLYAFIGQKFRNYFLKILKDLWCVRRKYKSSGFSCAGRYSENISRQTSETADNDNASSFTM
CALCRL-RAMP1, sequence (Q16602 23-461): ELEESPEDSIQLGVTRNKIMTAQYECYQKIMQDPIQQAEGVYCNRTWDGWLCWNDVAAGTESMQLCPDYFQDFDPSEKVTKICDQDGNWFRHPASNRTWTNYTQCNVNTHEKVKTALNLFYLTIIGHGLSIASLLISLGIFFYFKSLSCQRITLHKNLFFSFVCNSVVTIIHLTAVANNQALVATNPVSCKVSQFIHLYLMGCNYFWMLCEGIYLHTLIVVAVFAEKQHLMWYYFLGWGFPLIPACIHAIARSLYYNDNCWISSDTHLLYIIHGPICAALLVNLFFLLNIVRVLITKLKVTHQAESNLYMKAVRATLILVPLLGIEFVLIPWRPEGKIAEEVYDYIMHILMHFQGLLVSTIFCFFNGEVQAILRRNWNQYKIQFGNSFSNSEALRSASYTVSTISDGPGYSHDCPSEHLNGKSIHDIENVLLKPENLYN
CALCRL-RAMP1, sequence (O60894 27-148 partner): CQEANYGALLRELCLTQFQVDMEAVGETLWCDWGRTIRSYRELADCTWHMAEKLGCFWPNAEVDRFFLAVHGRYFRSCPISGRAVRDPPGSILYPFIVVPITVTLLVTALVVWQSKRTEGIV
ADRB1, sequence (P08588 whole entry): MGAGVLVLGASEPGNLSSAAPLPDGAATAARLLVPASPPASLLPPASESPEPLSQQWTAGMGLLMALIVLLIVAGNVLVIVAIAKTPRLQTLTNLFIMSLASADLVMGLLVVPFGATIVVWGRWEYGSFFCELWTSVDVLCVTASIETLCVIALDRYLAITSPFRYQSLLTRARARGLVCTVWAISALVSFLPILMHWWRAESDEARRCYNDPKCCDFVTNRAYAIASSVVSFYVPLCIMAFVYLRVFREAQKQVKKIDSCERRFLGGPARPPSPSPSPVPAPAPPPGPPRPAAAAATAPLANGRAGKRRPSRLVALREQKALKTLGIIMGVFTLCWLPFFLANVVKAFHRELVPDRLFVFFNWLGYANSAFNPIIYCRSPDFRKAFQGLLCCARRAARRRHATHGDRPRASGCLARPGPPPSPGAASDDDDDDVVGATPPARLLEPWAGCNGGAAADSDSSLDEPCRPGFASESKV
EDNRA, sequence (P25101 21-427): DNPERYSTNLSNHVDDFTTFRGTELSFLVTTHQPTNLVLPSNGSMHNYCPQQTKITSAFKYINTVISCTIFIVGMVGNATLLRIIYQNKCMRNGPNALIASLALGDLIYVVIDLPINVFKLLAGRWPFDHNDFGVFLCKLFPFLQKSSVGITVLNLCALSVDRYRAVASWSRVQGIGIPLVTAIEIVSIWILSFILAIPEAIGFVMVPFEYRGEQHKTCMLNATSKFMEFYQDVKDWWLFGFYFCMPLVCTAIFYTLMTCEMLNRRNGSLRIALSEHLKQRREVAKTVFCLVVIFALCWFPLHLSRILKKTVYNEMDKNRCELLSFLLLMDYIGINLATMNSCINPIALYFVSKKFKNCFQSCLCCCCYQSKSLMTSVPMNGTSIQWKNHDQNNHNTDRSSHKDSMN
GPR1, sequence (P46091 whole entry): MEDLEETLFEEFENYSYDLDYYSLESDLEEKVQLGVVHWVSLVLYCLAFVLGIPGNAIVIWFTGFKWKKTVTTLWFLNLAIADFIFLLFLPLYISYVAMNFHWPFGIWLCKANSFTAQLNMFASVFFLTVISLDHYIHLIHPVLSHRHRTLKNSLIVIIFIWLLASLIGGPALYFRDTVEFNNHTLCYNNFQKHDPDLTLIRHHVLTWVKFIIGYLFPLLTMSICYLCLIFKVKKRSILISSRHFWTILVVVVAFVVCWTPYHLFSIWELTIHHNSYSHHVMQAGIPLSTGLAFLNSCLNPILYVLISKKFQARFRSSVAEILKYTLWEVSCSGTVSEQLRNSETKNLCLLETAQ
CALCR, sequence (P30988 25-474): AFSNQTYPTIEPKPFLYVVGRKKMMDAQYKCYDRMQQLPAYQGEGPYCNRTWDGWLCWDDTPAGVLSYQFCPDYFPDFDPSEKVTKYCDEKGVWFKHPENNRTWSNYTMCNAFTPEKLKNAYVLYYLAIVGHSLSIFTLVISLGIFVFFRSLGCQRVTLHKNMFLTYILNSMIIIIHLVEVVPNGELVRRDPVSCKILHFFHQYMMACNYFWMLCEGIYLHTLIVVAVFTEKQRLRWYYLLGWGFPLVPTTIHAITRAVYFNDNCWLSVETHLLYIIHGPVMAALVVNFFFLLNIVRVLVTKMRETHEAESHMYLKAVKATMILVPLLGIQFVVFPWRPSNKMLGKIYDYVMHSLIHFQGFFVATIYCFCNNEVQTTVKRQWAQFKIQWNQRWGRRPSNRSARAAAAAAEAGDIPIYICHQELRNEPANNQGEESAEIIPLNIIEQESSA
CCR3, sequence (P51677 whole entry): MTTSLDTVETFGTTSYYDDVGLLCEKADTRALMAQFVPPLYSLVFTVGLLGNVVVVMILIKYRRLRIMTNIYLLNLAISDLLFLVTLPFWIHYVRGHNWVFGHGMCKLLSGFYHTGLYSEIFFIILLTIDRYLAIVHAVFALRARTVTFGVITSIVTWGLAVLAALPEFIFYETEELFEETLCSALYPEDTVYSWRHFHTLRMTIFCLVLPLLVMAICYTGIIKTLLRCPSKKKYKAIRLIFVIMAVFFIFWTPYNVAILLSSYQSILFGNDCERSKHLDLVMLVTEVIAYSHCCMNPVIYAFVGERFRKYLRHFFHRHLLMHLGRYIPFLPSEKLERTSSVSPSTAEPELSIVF
GHSR, sequence (Q92847 whole entry): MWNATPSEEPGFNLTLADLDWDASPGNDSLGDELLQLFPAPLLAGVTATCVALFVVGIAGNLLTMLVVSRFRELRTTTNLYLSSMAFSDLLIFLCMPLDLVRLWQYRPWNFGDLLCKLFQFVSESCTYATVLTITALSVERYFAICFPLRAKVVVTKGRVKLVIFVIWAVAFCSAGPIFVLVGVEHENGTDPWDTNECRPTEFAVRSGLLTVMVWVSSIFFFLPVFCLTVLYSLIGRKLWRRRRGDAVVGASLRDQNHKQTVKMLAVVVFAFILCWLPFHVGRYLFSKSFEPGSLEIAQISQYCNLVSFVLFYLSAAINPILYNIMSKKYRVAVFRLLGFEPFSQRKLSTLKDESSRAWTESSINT
MTNR1A, sequence (P48039 whole entry): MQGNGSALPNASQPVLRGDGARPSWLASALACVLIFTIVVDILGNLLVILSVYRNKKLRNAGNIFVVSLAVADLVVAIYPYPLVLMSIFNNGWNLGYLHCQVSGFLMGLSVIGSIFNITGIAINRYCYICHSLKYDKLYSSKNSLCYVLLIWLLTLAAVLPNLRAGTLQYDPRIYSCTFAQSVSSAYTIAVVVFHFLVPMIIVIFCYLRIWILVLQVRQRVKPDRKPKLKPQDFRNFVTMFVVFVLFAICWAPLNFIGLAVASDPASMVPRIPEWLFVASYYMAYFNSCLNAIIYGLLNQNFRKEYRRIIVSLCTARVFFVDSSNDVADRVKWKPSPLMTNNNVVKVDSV
GLP2R, sequence (O95838 whole entry): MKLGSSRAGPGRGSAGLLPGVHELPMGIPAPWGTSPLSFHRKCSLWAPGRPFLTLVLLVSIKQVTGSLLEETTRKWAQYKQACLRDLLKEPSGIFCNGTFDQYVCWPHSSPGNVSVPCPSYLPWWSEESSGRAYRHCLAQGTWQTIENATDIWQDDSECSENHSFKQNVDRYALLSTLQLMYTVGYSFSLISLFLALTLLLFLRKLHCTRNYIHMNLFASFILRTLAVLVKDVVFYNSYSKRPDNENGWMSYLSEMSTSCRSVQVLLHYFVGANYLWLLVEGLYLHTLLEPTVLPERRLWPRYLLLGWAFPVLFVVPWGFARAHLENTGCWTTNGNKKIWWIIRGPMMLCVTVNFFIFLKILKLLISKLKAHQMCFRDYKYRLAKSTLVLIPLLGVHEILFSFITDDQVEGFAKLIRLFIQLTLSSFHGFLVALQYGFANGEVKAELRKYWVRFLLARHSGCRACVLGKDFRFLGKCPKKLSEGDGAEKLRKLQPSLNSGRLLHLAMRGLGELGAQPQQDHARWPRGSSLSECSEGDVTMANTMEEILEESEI
BDKRB1, sequence (P46663 whole entry): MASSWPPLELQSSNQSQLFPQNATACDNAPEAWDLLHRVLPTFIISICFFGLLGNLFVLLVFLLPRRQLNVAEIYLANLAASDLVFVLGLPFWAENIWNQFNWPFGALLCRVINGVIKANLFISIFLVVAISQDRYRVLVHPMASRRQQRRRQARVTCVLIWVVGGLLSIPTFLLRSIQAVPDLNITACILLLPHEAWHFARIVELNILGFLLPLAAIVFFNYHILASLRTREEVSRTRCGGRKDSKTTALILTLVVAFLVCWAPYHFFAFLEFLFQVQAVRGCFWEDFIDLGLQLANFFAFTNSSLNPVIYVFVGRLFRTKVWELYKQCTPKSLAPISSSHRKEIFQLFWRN
ADORA3, sequence (P0DMS8 whole entry): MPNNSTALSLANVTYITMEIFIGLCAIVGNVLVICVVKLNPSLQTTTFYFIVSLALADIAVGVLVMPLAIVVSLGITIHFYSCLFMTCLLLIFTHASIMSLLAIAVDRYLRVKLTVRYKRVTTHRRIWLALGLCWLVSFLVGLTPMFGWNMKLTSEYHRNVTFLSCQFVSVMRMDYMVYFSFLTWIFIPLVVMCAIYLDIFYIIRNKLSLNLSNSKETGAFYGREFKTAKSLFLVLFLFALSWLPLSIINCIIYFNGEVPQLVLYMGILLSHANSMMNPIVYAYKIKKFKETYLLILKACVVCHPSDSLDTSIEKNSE

In the case of `Cc1c(Cl)cccc1NC(=O)c1sc2nc3c(cc2c1N)C(=O)CCC3` [Compound 1], the GI50 [1] is listed as 40.8 nM, the inhibition at 10 µM [2] is listed as 5% and the inhibition at 10 µM [3] is listed as 11%. The GI50 [4] was 279 nM, the inhibition at 10 µM [5] was 7% and the inhibition at 10 µM [6] was -18%. The inhibition at 10 µM [7] was -5%, the inhibition at 10 µM [8] was 23% and the inhibition at 10 µM [9] was 16%. The GI50 [10] was 306 nM, the inhibition at 10 µM [11] was -9% and the GI50 [12] was 80.3 nM. The GI50 [13] was 141 nM, the inhibition at 10 µM [14] was 13% and the inhibition at 10 µM [15] was 28%. The GI50 [16] was 103 nM, the inhibition at 10 µM [17] was -15% and the inhibition at 10 µM [18] was -15%. For the same molecule, the GI50 [19] was 51.8 nM, the inhibition at 10 µM [20] was 16% and the inhibition at 10 µM [21] was -27%. The inhibition at 10 µM [22] was 13%, the inhibition at 10 µM [23] was 10% and the inhibition at 10 µM [24] was -18%. The inhibition at 10 µM [25] was 25%, the inhibition at 10 µM [26] was -47% and the inhibition at 10 µM [27] was 13%. It also gave an inhibition at 10 µM [28] of -14%, an inhibition at 10 µM [29] of 7% and an inhibition at 10 µM [30] of 0%. For the same molecule, the GI50 [31] was 60.6 nM, the GI50 [32] was 46.1 nM and the inhibition at 10 µM [33] was 6%. The GI50 [34] was 67.3 nM, the inhibition at 10 µM [35] was -6% and the inhibition at 10 µM [36] was 13%. The inhibition at 10 µM [37] was -2%, the GI50 [38] was 53.5 nM and the GI50 [39] was 47.7 nM. For the same molecule, the inhibition at 10 µM [40] was -6% and the inhibition at 10 µM [41] was -28%.
